Measurements published in PMC10943399 (Heliyon, 2024).
“Also recorded” adds a separate entry of the source. Read-outs that look alike come from different tables or passages of the source.

Assays:
[1] = system: parasites; conditions: mice, dosage of 5 mg/kg, four days after treatment; cited from earlier work
[2] = system: P. falciparum Gombak A (CQ-resistant); experiment: pLDH antimalarial assay, P. falciparum Gombak A; assay type: cell-based, Plasmodium falciparum; conditions: for EC50: 48 h; for Selectivity Index (SI) (CC50MTT/EC50pLDH) P. falciparum Gombak A (CQ-resistant): Vero CC50 / Gombak A EC50
[3] = system: P. falciparum 3D7 (CQ-sensitive); experiment: pLDH antimalarial assay, P. falciparum 3D7; assay type: cell-based, Plasmodium falciparum; conditions: for Selectivity Index (SI) (CC50MTT/EC50pLDH) P. falciparum 3D7 (CQ-sensitive): Vero CC50 / 3D7 EC50; for antimalarial activity category against CQ-sensitive P. falciparum 3D7: category by EC50 range
[4] = system: P. knowlesi PKA1H1; experiment: pLDH antimalarial assay, P. knowlesi A1H1; assay type: cell-based, Plasmodium knowlesi; conditions: for EC50: Plasmodium knowlesi, 24 h, read-out: P. knowlesi PKA1H1 EC50 (μM) ± SD; for Selectivity Index (SI) (CC50MTT/EC50pLDH) P. knowlesi PKA1H1: Vero CC50 / PKA1H1 EC50
[5] = system: Vero cell (Normal cell); experiment: MTT cytotoxicity assay against Vero cells; assay type: cell-based; conditions: read-out: Vero cell (Normal cell) CC50 (μM) ± SD, 72 h, three independent experiments
[6] = system: zebrafish embryos; experiment: Zebrafish embryo acute toxicity; assay type: in vivo, zebrafish (Danio rerio); conditions: for effect on early embryonic development: zebrafish embryos at 24 hpf
[7] = system: zebrafish larvae; experiment: Zebrafish cardiotoxicity; assay type: in vivo, zebrafish (Danio rerio); conditions: zebrafish larvae at 72 hpf
[8] = system: transgenic zebrafish line Tg(kdrl:egfp); experiment: Blood vessel formation in transgenic zebrafish Tg; assay type: in vivo, zebrafish (Danio rerio); conditions: 30 hpf
[9] = system: zebrafish embryos; experiment: Spontaneous tail coiling; assay type: in vivo, zebrafish (Danio rerio); conditions: zebrafish embryos at 24 hpf, 6.25-50 μM, vs 0.1% DMSO
[10] = Solubility in egg water; assay type: physicochemical; conditions: zebrafish egg water
[11] = Plasmodium falciparum, read-out: P. falciparum Gombak A (CQ-resistant) EC50 (μM) ± SD, pLDH assay, 48 h, three independent experiments
[12] = Plasmodium falciparum, 3D7, 48 h, read-out: P. falciparum 3D7 (CQ-sensitive) EC50 (μM) ± SD, pLDH assay, 48 h, three independent experiments
[13] = read-out: P. falciparum 3D7 (CQ-sensitive) EC50 (μM) ± SD, pLDH assay, 48 h, three independent experiments
[14] = zebrafish, 72 hpf, up to 200 μM
[15] = up to 200 μM, 2 h after treatment

For `COc1cc(/C=C/C(=O)CC(=O)/C=C/c2ccc(O)c(OC)c2)ccc1O` [free curcumin, curcumin], the suppression of parasites [1] is given as 40.5%.

For `CCN(CC)CCCC(C)Nc1ccnc2cc(Cl)ccc12` (centres unmarked) [CQ, chloroquine, reference compound], the EC50 [2, 11] was 5.56 ± 3.2 µM.

With `COc1cccc(OC)c1C=CC(=O)C=Cc1c(OC)cccc1OC` [MS33D, 1,5-Bis(2,6-dimethoxyphenyl)penta-1,4-dien-3-one] the EC50 [3, 12] was 21.7 ± 0.8 µM, the “Selectivity Index (SI) (CC50MTT/EC50pLDH) P. falciparum 3D7 (CQ-sensitive)” value [3] was 10.4 and the EC50 [2, 11] was 74.4 ± 2.4 µM. The “Selectivity Index (SI) (CC50MTT/EC50pLDH) P. falciparum Gombak A (CQ-resistant)” value [2] was 3.0, the EC50 [4] was 23.7 ± 2.6 µM and the “Selectivity Index (SI) (CC50MTT/EC50pLDH) P. knowlesi PKA1H1” value [4] was 9.5.

For `O=C(C=Cc1cccc(Cl)c1)C=Cc1cccc(Cl)c1` [MS40B, 1,5-Bis(3-chlorophenyl)penta-1,4-dien-3-one], the EC50 [3, 12] was 13.7 ± 0.8 µM, the “Selectivity Index (SI) (CC50MTT/EC50pLDH) P. falciparum 3D7 (CQ-sensitive)” value [3] was 12.0 and the “antimalarial activity category against CQ-sensitive P. falciparum 3D7” value [3] was “active”. The EC50 [2, 11] was 45.6 ± 1.3 µM, the “Selectivity Index (SI) (CC50MTT/EC50pLDH) P. falciparum Gombak A (CQ-resistant)” value [2] was 3.6 and the EC50 [4] was 16.6 ± 0.5 µM. For the same compound, the “Selectivity Index (SI) (CC50MTT/EC50pLDH) P. knowlesi PKA1H1” value [4] was 9.9.

For `COc1cccc(C=CC(=O)C=Cc2cccc(OC)c2OC)c1OC` [MS33A, 1,5-Bis(2,3-dimethoxyphenyl)penta-1,4-dien-3-one], the “Selectivity Index (SI) (CC50MTT/EC50pLDH) P. falciparum 3D7 (CQ-sensitive)” value [3] was 26.6, the “antimalarial activity category against CQ-sensitive P. falciparum 3D7” value [3] was “active” and the EC50 [2, 11] was 87.5 ± 0.9 µM. For the same compound, the “Selectivity Index (SI) (CC50MTT/EC50pLDH) P. falciparum Gombak A (CQ-resistant)” value [2] was 1.0, the EC50 [4] was 3.6 ± 0.2 µM and the “Selectivity Index (SI) (CC50MTT/EC50pLDH) P. knowlesi PKA1H1” value [4] was 22.9. For the same compound, the CC50 [5] was 82.6 ± 1.7 µM, the “effect on early embryonic development” value ([6]; 100 μM (not at 50 μM and lower)) was “gastrulation defects” and the “heart development (edema)” value ([6]; zebrafish, 72 hpf, 50 μM (not at 25 μM)) was “heart edema”. For the same compound, the heart rate ([7]; 12.5 μM) was “relatively normal”, the heart rate ([7]; 25 and 50 μM) was “decrease in heartbeats” and the “development of intersegmental vessels (ISVs)” value (from here on “development … (ISVs)”) ([8]; 50 μM (not at 25 μM)) was “affected ISVs development; also recorded: inhibitory effects on ISV development”. For the same compound, the “mean STC activity” value [9] was “No significant change”.

Work on `COc1ccc(C=C2CCCC(=Cc3ccc(OC)c(OC)c3OC)C2=O)c(OC)c1OC` [MS72A, 2,6-Bis(2,3,4-trimethoxybenzylidene)cyclohexanone] yielded an EC50 [3, 12] greater than 500 µM, an EC50 [3, 13] of 530 ± 3.6 µM and an EC50 [2, 11] greater than 200 µM. For the same compound, the EC50 [4] was 507.5 ± 1.3 µM.

With `COc1cc(C=C2CCC(=Cc3cc(OC)c(OC)c(OC)c3)C2=O)cc(OC)c1OC` [MS87, 2,5-Bis(3,4,5-trimethoxybenzylidene)cyclopentanone] the EC50 [3, 12] was 10.8 ± 1.3 µM, the “Selectivity Index (SI) (CC50MTT/EC50pLDH) P. falciparum 3D7 (CQ-sensitive)” value [3] was 52.2 and the “antimalarial activity category against CQ-sensitive P. falciparum 3D7” value [3] was “active”. The EC50 [2, 11] was 1.85 to 8.75 µM, the “Selectivity Index (SI) (CC50MTT/EC50pLDH) P. falciparum Gombak A (CQ-resistant)” value [2] was 304.9 and the EC50 ([2]; read-out: P. falciparum Gombak A (CQ-resistant) EC50 (μM) ± SD, pLDH assay, three independent experiments) was 1.85 ± 2.8 µM. For the same compound, the EC50 [4] was 11.4 ± 0.9 µM, the “Selectivity Index (SI) (CC50MTT/EC50pLDH) P. knowlesi PKA1H1” value [4] was 49.5 and the “solubility in egg water” value [10] was “problems with solubility in egg water”.

With `COc1ccc(OC)c(C=CC(=O)C=Cc2cc(OC)ccc2OC)c1` [MS33C, 1,5-Bis(2,5-dimethoxyphenyl)penta-1,4-dien-3-one] the EC50 [3, 12] was less than 5 µM, the “Selectivity Index (SI) (CC50MTT/EC50pLDH) P. falciparum 3D7 (CQ-sensitive)” value [3] was 65.2 and the “antimalarial activity category against CQ-sensitive P. falciparum 3D7” value [3] was “active”. The EC50 [3, 13] was 2.5 ± 0.4 µM, the EC50 [2, 11] was 56.2 ± 1.3 µM and the “Selectivity Index (SI) (CC50MTT/EC50pLDH) P. falciparum Gombak A (CQ-resistant)” value [2] was 2.9. The EC50 [4] was 5.1 ± 0.2 µM, the “Selectivity Index (SI) (CC50MTT/EC50pLDH) P. knowlesi PKA1H1” value [4] was 32.0 and the CC50 [5] was 163 ± 1.8 µM. The “effect on early embryonic development” value ([6]; up to 200 μM) was “no significant effect”, the “morphological changes / heart development” value [6, 14] was “no detectable morphological changes; also recorded: no effect on normal heart development” and the heart rate [7, 15] was “no obvious abnormalities; also recorded: normal heart beats”. The “development … (ISVs)” value ([8]; up to 200 μM) was “no effect on normal vessel development; also recorded: no significant difference” and the “mean STC activity” value [9] was “No significant change”.

Compound `COc1cc(C=C2CCCC(=Cc3cc(OC)c(OC)c(OC)c3)C2=O)cc(OC)c1OC` [MS72C, 2,6-Bis(3,4,5-trimethoxybenzylidene)cyclohexanone] has an EC50 [3, 12] greater than 500 µM, an EC50 [3, 13] of 515.1 ± 4.9 µM and an EC50 [2, 11] greater than 200 µM. It also gave an EC50 [4] of 430.1 ± 2.3 µM.

In the case of `O=C1C(=Cc2cccc(F)c2)CCC1=Cc1cccc(F)c1` [MS79, 2,5-Bis(3-fluorobenzylidene)cyclopentanone], the EC50 [3, 12] is reported as greater than 500 µM, the EC50 [3, 13] is reported as 329.3 ± 2.6 µM and the EC50 [2, 11] is reported as greater than 200 µM. For the same compound, the EC50 [4] was 195 ± 2.7 µM.

`O=C1C(=Cc2ccccc2F)CCC1=Cc1ccccc1F` [MS78, 2,5-Bis(2-fluorobenzylidene)cyclopentanone] showed an EC50 [3, 12] greater than 500 µM, an EC50 [3, 13] of 689.1 ± 4.2 µM and an EC50 [2, 11] greater than 200 µM. The EC50 [4] was 355 ± 7.1 µM.

For `COc1cc(C=CC(=O)C=Cc2cc(OC)c(OC)c(OC)c2)cc(OC)c1OC` [MS34C, 1,5-Bis(3,4,5-trimethoxyphenyl)penta-1,4-dien-3-one], the “Selectivity Index (SI) (CC50MTT/EC50pLDH) P. falciparum 3D7 (CQ-sensitive)” value [3] was 84.0, the “antimalarial activity category against CQ-sensitive P. falciparum 3D7” value [3] was “active” and the “Selectivity Index (SI) (CC50MTT/EC50pLDH) P. falciparum Gombak A (CQ-resistant)” value [2] was 15.4. The EC50 [4] was 11.8 ± 1.1 µM, the “Selectivity Index (SI) (CC50MTT/EC50pLDH) P. knowlesi PKA1H1” value [4] was 11.4 and the CC50 [5] was 134 ± 3.2 µM. The “effect on early embryonic development” value ([6]; up to 200 μM) was “no significant effect”, the “morphological changes / heart development” value [6, 14] was “no detectable morphological changes; also recorded: no effect on normal heart development” and the heart rate [7, 15] was “no obvious abnormalities; also recorded: normal heart beats”. For the same compound, the “development … (ISVs)” value ([8]; up to 200 μM) was “no effect on normal vessel development; also recorded: no significant difference” and the “mean STC activity” value [9] was “No significant change”.

For `O=C1C(=Cc2ccccc2Cl)CCCC1=Cc1ccccc1Cl` [MS47, 2,6-Bis(2-chlorobenzylidene)cyclohexanone], the EC50 [3, 12] was 16.1 ± 0.5 µM, the “Selectivity Index (SI) (CC50MTT/EC50pLDH) P. falciparum 3D7 (CQ-sensitive)” value [3] was 10.6 and the “antimalarial activity category against CQ-sensitive P. falciparum 3D7” value [3] was “active”. The EC50 [2, 11] was 51.4 ± 2.7 µM, the “Selectivity Index (SI) (CC50MTT/EC50pLDH) P. falciparum Gombak A (CQ-resistant)” value [2] was 3.3 and the EC50 [4] was 21.7 ± 1.2 µM. The “Selectivity Index (SI) (CC50MTT/EC50pLDH) P. knowlesi PKA1H1” value [4] was 7.9.

In the case of `COc1cccc(C=C2CCCC(=Cc3cccc(OC)c3OC)C2=O)c1OC` [MS69, 2,6-Bis(2,3-dimethoxybenzylidene)cyclohexanone], the EC50 [3, 12] is reported as greater than 500 µM, the EC50 [3, 13] is reported as 785.8 ± 4.2 µM and the EC50 [2, 11] is reported as 28.7 ± 2 µM. It also gave an EC50 [4] of 324 ± 5.9 µM.
